These are literature values, as cited in US6489098B1, “Means and methods for monitoring nucleoside reverse transcriptase inhibitor antiretroviral therapy and guiding therapeutic decisions in the treatment of HIV/AIDS” (ViroLogic, Inc., priority 1998, dated 2002).

Structures are written as SMILES.

In data set [1] the test system is HIV with RT mutation at codon 50. Particulars: mutation at codon 50, in vitro; cited from earlier work.
The test system of data set [2] is HIV with multiple ZDV resistance mutations. Particulars: read-out: IC50 (high-level resistance); cited from earlier work.

Consider `Cc1cn([C@H]2C=C[C@@H](CO)O2)c(=O)[nH]c1=O` [d4T, stavudine], for which the “fold reduction in sensitivity” value in data set [1] was 30 fold.
A word on the IC50: it is the midpoint of a concentration-inhibition curve. For the molecule `Cc1cn([C@H]2C[C@H](N=[N+]=[N-])[C@@H](CO)O2)c(=O)[nH]c1=O` [AZT, zidovudine], the IC50 in data set [2] was over 1000 nM.
